Among the data in US11229623B2 (GlaxoSmithKline Intellectual Property (No.2) Limited, priority 2016, dated 2022) are IC50 values, retold here.

T1 sequence (Q9HBA0 whole entry): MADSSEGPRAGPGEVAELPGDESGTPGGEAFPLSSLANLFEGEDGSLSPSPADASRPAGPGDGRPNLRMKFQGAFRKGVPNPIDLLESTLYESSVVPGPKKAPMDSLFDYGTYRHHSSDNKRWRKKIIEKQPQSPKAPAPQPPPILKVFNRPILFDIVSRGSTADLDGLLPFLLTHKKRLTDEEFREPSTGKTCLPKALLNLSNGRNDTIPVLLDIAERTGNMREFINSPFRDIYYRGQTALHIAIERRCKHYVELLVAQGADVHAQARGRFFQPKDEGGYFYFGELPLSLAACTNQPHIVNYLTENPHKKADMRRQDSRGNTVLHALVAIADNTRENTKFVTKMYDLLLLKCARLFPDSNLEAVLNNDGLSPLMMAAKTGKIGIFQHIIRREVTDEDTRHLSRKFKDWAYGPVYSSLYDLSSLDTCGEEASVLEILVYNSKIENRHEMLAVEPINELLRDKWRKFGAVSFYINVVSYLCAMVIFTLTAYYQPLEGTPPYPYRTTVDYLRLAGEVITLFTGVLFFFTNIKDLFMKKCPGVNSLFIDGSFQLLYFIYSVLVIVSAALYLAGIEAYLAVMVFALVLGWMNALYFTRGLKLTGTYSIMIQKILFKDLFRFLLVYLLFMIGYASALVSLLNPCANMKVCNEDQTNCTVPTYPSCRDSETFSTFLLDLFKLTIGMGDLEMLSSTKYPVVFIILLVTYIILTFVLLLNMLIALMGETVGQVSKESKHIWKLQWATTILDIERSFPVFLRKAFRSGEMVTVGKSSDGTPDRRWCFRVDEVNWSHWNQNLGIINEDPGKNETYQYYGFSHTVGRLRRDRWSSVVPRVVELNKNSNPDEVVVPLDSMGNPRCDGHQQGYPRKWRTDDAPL

This assay has as its target T1, human TRPV4 (Homo sapiens, UniProt Q9HBA0).
T1 construct: expressed in transfected cells; host or cells: BHK/AC9 cells transduced with BacMam virus
Briefly: FLIPR assay for hTRPV4 expressed in BHK cells: inhibition of Agonist Compound-induced calcium signal. Particulars: hTRPV4 in BHK/AC9 cells, FLIPR calcium signal, agonist at EC80; reported as range class; read-out: IC50. In kind it is cell-based. The procedure, abridged:
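Calcium influx through TRPV4 tracked by Fluo-4 fluorescence on FLIPR. Cells: BHK/AC9 transduced with BacMam-hTRPV4 at MOI 78, 24 h culture post-plating (15,000 cells/well). Dye loading: 2 μM Fluo-4 AM with 500 μM Brilliant Black quencher, 1-1.5 h, room temperature, dark.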
A word on the IC50: it is the point on the concentration scale where inhibition reaches its midpoint. On to `N#Cc1ccc(O[C@H]2CN(S(=O)(=O)c3c(Cl)cc(C(F)(F)F)cc3Cl)C[C@@]2(O)CO)cc1F` [Example 96, 4-(((3S,4R)-1-((2,6-dichloro-4-(trifluoromethyl)phenyl)sulfonyl)-4-hydroxy-4-(hydroxymethyl)pyrrolidin-3-yl)oxy)-2-fluorobenzonitrile], for which the IC50 lay in the range of 10 to 100 nM.

Regarding `N#Cc1ccc(S(=O)(=O)N2C[C@H](Oc3ccc(C#N)c(F)c3)[C@](O)(CO)C2)c(Cl)c1` [Example 97, 4-(((3S,4R)-1-((2-chloro-4-cyanophenyl)sulfonyl)-4-hydroxy-4-(hydroxymethyl)pyrrolidin-3-yl)oxy)-2-fluorobenzonitrile], the 50% inhibitory concentration (IC50) is 0.1 to 10 nM.

With `N#Cc1ccc(O[C@H]2CN(S(=O)(=O)c3ccc(C(F)F)cc3)C[C@@]2(O)CO)cc1F` [Example 98, 4-(((3S,4R)-1-((4-(difluoromethyl)phenyl)sulfonyl)-4-hydroxy-4-(hydroxymethyl)pyrrolidin-3-yl)oxy)-2-fluorobenzonitrile], the IC50 was in the range of 10 to 100 nM. `N#Cc1ccc(O[C@H]2CN(S(=O)(=O)c3ccc(Br)nc3)C[C@@]2(O)CO)cc1F` [Example 99, 4-(((3S,4R)-1-((6-bromopyridin-3-yl)sulfonyl)-4-hydroxy-4-(hydroxymethyl)pyrrolidin-3-yl)oxy)-2-fluorobenzonitrile]: the IC50 lay within 10 to 100 nM. As to `N#Cc1ccc(O[C@H]2CN(S(=O)(=O)c3ccc(C(F)(F)F)nc3Cl)C[C@@]2(O)CO)cc1F` [Example 100, 4-(((3S,4R)-1-((2-chloro-6-(trifluoromethyl)pyridin-3-yl)sulfonyl)-4-hydroxy-4-(hydroxymethyl)pyrrolidin-3-yl)oxy)-2-fluorobenzonitrile], the IC50 was in the range of 0.1 to 10 nM. As for `N#Cc1ccc(O[C@H]2CN(S(=O)(=O)c3ccc(Cl)cc3)C[C@@]2(O)CO)cc1F` [Example 101, 4-(((3S,4R)-1-((4-chlorophenyl)sulfonyl)-4-hydroxy-4-(hydroxymethyl)pyrrolidin-3-yl)oxy)-2-fluorobenzonitrile], the figure is 10 to 100 nM; as for `N#Cc1ccc(O[C@H]2CN(S(=O)(=O)c3ccc(Br)cc3)C[C@@]2(O)CO)cc1F` [Example 102, 4-(((3S,4R)-1-((4-bromophenyl)sulfonyl)-4-hydroxy-4-(hydroxymethyl)pyrrolidin-3-yl)oxy)-2-fluorobenzonitrile], 10 to 100 nM; as for `N#Cc1ccc(O[C@H]2CN(S(=O)(=O)c3ccc(I)cc3)C[C@@]2(O)CO)cc1F` [Example 103, 2-fluoro-4-(((3S,4R)-4-hydroxy-4-(hydroxymethyl)-1-((4-iodophenyl)sulfonyl)pyrrolidin-3-yl)oxy)benzonitrile], 10 to 100 nM. For `COc1cc(C#N)ccc1S(=O)(=O)N1C[C@H](Oc2ccc(C#N)c(F)c2)[C@](O)(CO)C1` [Example 104, 4-(((3S,4R)-1-((4-cyano-2-methoxyphenyl)sulfonyl)-4-hydroxy-4-(hydroxymethyl)pyrrolidin-3-yl)oxy)-2-fluorobenzonitrile], the IC50 was 10 to 100 nM.

Turning to `N#Cc1ccc(O[C@H]2CN(S(=O)(=O)c3ccc(Br)cn3)C[C@@]2(O)CO)cc1F` [Example 105, 4-(((3S,4R)-1-((5-bromopyridin-2-yl)sulfonyl)-4-hydroxy-4-(hydroxymethyl)pyrrolidin-3-yl)oxy)-2-fluorobenzonitrile], the IC50 was in the range of 10 to 100 nM. As for `N#Cc1ccc(S(=O)(=O)N2C[C@H](Oc3ccc(Cl)cc3)[C@](O)(CO)C2)c(Cl)c1` [Example 106, 3-chloro-4-(((3R,4S)-4-(4-chlorophenoxy)-3-hydroxy-3-(hydroxymethyl)pyrrolidin-1-yl)sulfonyl)benzonitrile], the IC50 was in the range of 0.1 to 10 nM. On to `N#Cc1ccccc1S(=O)(=O)N1C[C@H](Oc2ccc(Cl)cc2)[C@](O)(CO)C1` [Example 107, 2-(((3R,4S)-4-(4-chlorophenoxy)-3-hydroxy-3-(hydroxymethyl)pyrrolidin-1-yl)sulfonyl)benzonitrile], for which the IC50 lay in the range of 10 to 100 nM. As for `N#Cc1ccc(S(=O)(=O)N2C[C@H](Oc3ccc(Cl)cc3)[C@](O)(CO)C2)c(Br)c1` [Example 108, 3-bromo-4-(((3R,4S)-4-(4-chlorophenoxy)-3-hydroxy-3-(hydroxymethyl)pyrrolidin-1-yl)sulfonyl)benzonitrile], the IC50 fell in the range of 0.1 to 10 nM.

As for `N#Cc1ccc(S(=O)(=O)N2C[C@H](Oc3ccc(Cl)cc3)[C@](O)(CO)C2)cn1` [Example 109, 5-(((3R,4S)-4-(4-chlorophenoxy)-3-hydroxy-3-(hydroxymethyl)pyrrolidin-1-yl)sulfonyl)picolinonitrile], the IC50 lay within 10 to 100 nM.

Turning to `N#Cc1ncccc1S(=O)(=O)N1C[C@H](Oc2ccc(Cl)cc2)[C@](O)(CO)C1` [Example 110, 3-(((3R,4S)-4-(4-chlorophenoxy)-3-hydroxy-3-(hydroxymethyl)pyrrolidin-1-yl)sulfonyl)picolinonitrile], the IC50 lay in the range of 10 to 100 nM. As for `N#Cc1ccc(O[C@H]2CN(S(=O)(=O)c3ccc(CC(F)(F)F)cc3)C[C@@]2(O)CO)cc1F` [Example 111, 2-fluoro-4-(((3S,4R)-4-hydroxy-4-(hydroxymethyl)-1-((4-(2,2,2-trifluoroethyl)phenyl)sulfonyl)pyrrolidin-3-yl)oxy)benzonitrile], the figure is 10 to 100 nM; as for `N#Cc1ccc(O[C@H]2CN(S(=O)(=O)c3ccc(C(F)(F)F)s3)C[C@@]2(O)CO)cc1F` [Example 112, 2-fluoro-4-(((3S,4R)-4-hydroxy-4-(hydroxymethyl)-1-((5-(trifluoromethyl)thiophen-2-yl)sulfonyl)pyrrolidin-3-yl)oxy)benzonitrile], 10 to 100 nM; as for `N#Cc1ccc(S(=O)(=O)N2C[C@H](Oc3ccc(C#N)c(F)c3)[C@](O)(CO)C2)c(F)c1` [Example 113, 4-(((3S,4R)-1-((4-cyano-2-fluorophenyl)sulfonyl)-4-hydroxy-4-(hydroxymethyl)pyrrolidin-3-yl)oxy)-2-fluorobenzonitrile], 0.1 to 10 nM. On to `N#Cc1ccc(O[C@H]2CN(S(=O)(=O)c3ccc(I)cc3C#N)C[C@@]2(O)CO)cc1F` [Example 114, 4-(((3S,4R)-1-((2-cyano-4-iodophenyl)sulfonyl)-4-hydroxy-4-(hydroxymethyl)pyrrolidin-3-yl)oxy)-2-fluorobenzonitrile], for which the IC50 was 0.1 to 10 nM. The result for `N#Cc1ccc(O[C@H]2CN(S(=O)(=O)c3ccc(I)cc3Cl)C[C@@]2(O)CO)cc1F` [Example 115, 4-(((3S,4R)-1-((2-chloro-4-iodophenyl)sulfonyl)-4-hydroxy-4-(hydroxymethyl)pyrrolidin-3-yl)oxy)-2-fluorobenzonitrile] reads 0.1 to 10 nM. Take `N#Cc1ccc(O[C@H]2CN(S(=O)(=O)c3ccc(C(F)(F)F)c(F)c3)C[C@@]2(O)CO)cc1F` [Example 116, 2-fluoro-4-(((3S,4R)-1-((3-fluoro-4-(trifluoromethyl)phenyl)sulfonyl)-4-hydroxy-4-(hydroxymethyl)pyrrolidin-3-yl)oxy)benzonitrile]: the IC50 lay within 10 to 100 nM.

Turning to `N#Cc1ccc(O[C@H]2CN(S(=O)(=O)c3ccccc3Br)C[C@@]2(O)CO)cc1F` [Example 117, 4-(((3S,4R)-1-((2-bromophenyl)sulfonyl)-4-hydroxy-4-(hydroxymethyl)pyrrolidin-3-yl)oxy)-2-fluorobenzonitrile], the IC50 fell in the range of 10 to 100 nM.
